We go through six compounds from article PMC6588435 (Cell chemical biology, 2019).

Each structure is given as a SMILES string. Values after ≈ are worked out from the molar mass of the structure shown. Values joined by “and” are separate entries in the source; they are usually repeats but may differ in a detail not shown here. Equal values may be shown once. Read-outs that look alike come from different tables or passages of the source.

One assay deals with Mtb Erdman (ATCC 35801). As to the kind of experiment: In vitro susceptibility testing. In kind it is cell-based, Mycobacterium tuberculosis.
The next assay deals with Mtb Erdman cells. In kind it is cell-based, Mycobacterium tuberculosis.
Assay [1] addresses T1, Mtb DHFR (Mycobacterium tuberculosis, UniProt P9WNX1). As to the kind of experiment: biochemical.
For assay [2], the target named is T1, Mtb DHFR. As to the kind of experiment: biochemical. The source holds these as a separate data set.
Assay [3] deals with T2, Mtb FDTS (Mycobacterium tuberculosis, UniProt P9WG57). As to the kind of experiment: Mtb FDTS NADPH oxidation assay. In kind it is biochemical.
T2 sequence (P9WG57 whole entry): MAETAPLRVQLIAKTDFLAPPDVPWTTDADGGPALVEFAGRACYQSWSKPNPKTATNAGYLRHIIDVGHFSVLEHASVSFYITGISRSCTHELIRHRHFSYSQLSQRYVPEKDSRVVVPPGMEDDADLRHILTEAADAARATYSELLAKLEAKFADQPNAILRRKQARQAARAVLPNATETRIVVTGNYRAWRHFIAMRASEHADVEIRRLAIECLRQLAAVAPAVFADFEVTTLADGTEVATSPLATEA
The target in assay [4] is T2, Mtb FDTS. As to the kind of experiment: HPLC analysis of Mtb FDTS reaction. In kind it is biochemical.
Another assay has as its target Mtb Rv2671 (Mycobacterium tuberculosis, UniProt P71968). As to the kind of experiment: Mtb Rv2671 enzyme inhibition assay. In kind it is biochemical.
Assay [5] has as its target T2, Mtb FDTS. As to the kind of experiment: Differential scanning calorimetry of Mtb FDTS. Conditions: DSC; control (FDTS, dUMP, FAD) 66.6 °C. In general terms: Differential scanning calorimetry records heat flow against a reference as temperature is scanned.
The target of assay [6] is T1, Mtb DHFR. In kind it is binding. To be noted: DSC, with NADPH; control (Mtb DHFR+NADPH) 65 °C.
The test system of a further assay is Mtb cells. Conditions: treatment of Mtb cells; ref Nixon et al. (2014); cited from earlier work.
The mark [7] stands for this setting: read-out: Mtb Rv2671 Ki, 50 μM NADPH.

T1 sequence (P9WNX1 whole entry): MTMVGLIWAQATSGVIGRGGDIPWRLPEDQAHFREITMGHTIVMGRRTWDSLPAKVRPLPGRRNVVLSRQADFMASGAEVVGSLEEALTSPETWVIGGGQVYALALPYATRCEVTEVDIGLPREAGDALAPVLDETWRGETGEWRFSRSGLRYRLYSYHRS

Usually MIC stands for the least concentration at which growth counts as inhibited. For the compound `CN(Cc1cnc2nc(N)nc(N)c2n1)c1ccc(C(=O)N[C@@H](CCC(=O)O)C(=O)O)cc1` [MTX, Methotrexate], in the assay with Mtb Erdman (ATCC 35801) (Mycobacterium tuberculosis, ATCC35801|ERDMAN), the MIC was above 100 µg/mL.
On to `Nc1ccc(C(=O)O)c(O)c1` [PAS, para-aminosalicylic acid], for which the “reduction of 14C incorporation to the FAME/MAME fraction” value with Mtb Erdman cells (0.36 μg/ml) turned out to be 52%. Besides, in the assay with Mtb Erdman cells (TLC of FAME/MAME), the “effect on methoxymycolic acids” value is listed as “significant reduction”. In addition, the MIC in the assay on Mtb Erdman (ATCC 35801) (Mycobacterium tuberculosis, ATCC35801|ERDMAN, read-out: MIC, WT Mtb) stood at 0.5 µg/mL (≈ 3.27 µM).
By koff is commonly meant a measure of how fast the partners let go of each other. The Ki is the dissociation constant of the complex between target and ligand, obtained from inhibition or displacement. The term IC50 denotes the concentration needed to halve the response being measured. The low end stands for inhibition by little substance, the high end for a need for much substance. Take `Nc1nc(=O)c2nc(CNc3ccc(C(=O)NC(CCC(=O)O)C(=O)O)c(O)c3)cnc2[nH]1` (centres unmarked) [PAS-M, 2-[(4-{[(2-amino-4-oxo-1,4-dihydropteridin-6-yl)methyl]amino}-2-hydroxyphenyl)formamido] pentanedioic acid]: on Mtb DHFR [1] (read-out: Mtb DHFR koff), the koff is 0.0107 s⁻¹. For the same compound, the residence time at Mtb DHFR [1] (read-out: Mtb DHFR tR (residence time)) is 1.5 ± 0.3 min. Also, the inhibitory constant (Ki) on Mtb DHFR [2] came out at 750 ± 120 nM; at Mtb Rv2671, 27500 nM. At Mtb FDTS [3], the IC50 is 14400 ± 1500 nM. Moreover, the “decrease in dTMP levels compared to control” value on Mtb FDTS [4] is recorded as ~ 2.5 fold. For the same compound, the “Mtb FDTS Tm” value on Mtb FDTS [5] stood at 71.9 °C.
In the case of `CCc1nc(N)nc(N)c1C#C[C@H](C)c1cc(-c2ccncc2)ccc1OC` [UCP1063], the minimal inhibitory concentration (MIC) against Mtb Erdman (ATCC 35801) is 2 µg/mL (≈ 5.36 µM). Besides, the “Mtb DHFR Tm” value at Mtb DHFR [6] is 71 °C and 71 ± 2.7 °C. For the same compound, the Ki on Mtb Rv2671 (setting [7]) came to 52 ± 6.2 nM.
`CCc1nc(N)nc(N)c1C#C[C@@H](C)c1cc(-c2ccc(C(=O)O)cc2)ccc1OC` [UCP1164] had an MIC in the assay with Mtb Erdman (ATCC 35801) of 0.5 µg/mL (≈ 1.2 µM). For the same compound, at Mtb Rv2671 (setting [7]), the inhibitory constant (Ki) is 120 ± 8.5 nM.
Consider `CC1(C)N=C(N)N=C(N)N1OCCCOc1cc(Cl)c(Cl)cc1Cl` [WR99210], for which the “decrease in the concentration of SAM” value with Mtb cells is given as 20 fold.
